# In US20200315996A1 (Board of Trustees, Southern Illinois University, priority 2016, published 2020):
# Experiments:
# [1] = tested on: endometriotic lesions; test: Mouse model of endometriosis, growth of implanted endometriotic lesions (Study 1); assay type: in vivo, mice; conditions: for lesion weight / lesion volume: 3 weeks; for lesion weight: controls 0.044±0.007 g; for lesion volume: controls 40.1±6.6 mm3; for total weight of lesions: controls 154.0±29.3 mg
# Source text: An experimental mouse model of endometriosis was established adopting procedures described previously with some modification [Han, 2012; Hirata, 2005; Kulak, 2011; Pelch, 2012; Zhao, 2014]. Female, eight week old B6-GFP mice were used as donor mice. These mice are transgenic mice whose cells endogenously express a green fluorescent protein (GFP) which is detectable under fluorescent light. When implanted to a GFP-negative recipient mouse, tissue implants from GFP-positive donor mice can be distinguished from the tissues of the recipient mice. Ectopic GFP-positive lesions were microscopically examined to evaluate the implants for accurate growth and progression. Briefly, the uterine horns were removed from donor mice during the diestrus stage of the reproductive cycle. […] Then, the uterine pieces were maintained in warmed DMEM/F12 medium (#10-090, Corning). […] The recipient mice were selected during the diestrus stage and anesthetized. In each mouse, a longitudinal abdominal incision was made, and uterine pieces from donor mice were sutured to the right or left side of the peritoneal walls of each animal (implanting each 2-mm and 3-mm piece per side) using a 6-0 braided silk suture (# SUT-1073-11, Roboz). Then, the abdominal incision was closed with a 4-0 braided silk suture (# SUT-1073-31, Roboz). […] Uterine tissue pieces of B6-GFP mice (donor) were implanted into the peritoneal walls of recipient mice. […] The lesion volume was calculated according to the formula (L×W^2), where L is length and W is width [[…], 2007].
# [2] = tested on: p-CHUK (IKK); test: Immunohistochemistry of endometriotic lesions, p-CHUK; assay type: in vivo, mice; conditions: 3 weeks
# Source text: (§1) The presence and location of different proteins in the tissues obtained from the recipient mice. Samples of uterine tissue were isolated from the recipient mice, fixed by standard histological methods, and embedded in paraffin. Thin sections (5 μm) of the paraffin-embedded tissues were screened with standard immunohistochemical methods using antibodies to identify the expression of in the uterine tissues. […] The expression of MKI67, ESR1, PGR, p-CHUK, p-STAT3, NOS2 and PTGS2 proteins in uterine tissues, as determined by immunohistochemical analysis of uterine tissue sections, was semiquantitatively analyzed. Levels of apoptosis were analyzed by TUNEL assay and also semiquantitatively analyzed. […] Histological sections were obtained from 4 different lesions. For each section, three different areas measuring 0.007 mm^2 were chosen. In each of those areas, the total number of epithelial or stromal cells was counted, as was the number of cells that tested positive for expressing MKI67 (a marker of cellular proliferation), steroid receptors ESR1 and PGR, and inflammatory signaling molecules p-CHUK, p-STAT3, NOS2 and PTGS2 proteins.
# [3] = rats; cited from earlier work
# [4] = tested on: ESR1; test: Immunohistochemistry of endometriotic lesions, ESR1; assay type: in vivo, mice; conditions: 3 weeks; for % of ESR1 positive cells/total cells/0.007 mm^2, Stroma: control 45.6 ± 6.9; for % of ESR1 positive cells/total cells/0.007 mm^2, Epithelium: control 79.1 ± 3.7
# Source text: (§2) The presence and location of different proteins in the tissues obtained from the recipient mice. Samples of uterine tissue were isolated from the recipient mice, fixed by standard histological methods, and embedded in paraffin. Thin sections (5 μm) of the paraffin-embedded tissues were screened with standard immunohistochemical methods using antibodies to identify the expression of in the uterine tissues.
# (§3) Primary antibodies that recognized MKI67 (Ki67), PECAM1 (CD31), ESR1, PGR, p-CHUK (IKK), p-STAT3, NOS2 (iNOS) and PTGS2 (COX2), and Vectastain Elite ABC Kit (# PK-6101), Mouse on Mouse Basic Kit (# BMK-2202, Vector laboratories) or DyLight-conjugated secondary antibody (#711-516-152, Jackson ImmunoResearch Lab) were used to show the presence of the proteins in the tissues, which were examined under microscopes.
# (§4) The primary antibodies used in these analyses were: anti-MKI67 (Ki67, 1:200 dilution, 550609, BD Biosciences), anti-PECAM1 (CD31, 1:100 dilution, ab28364, Abcam), anti-ESR1 (1:100 dilution, sc-542, Santa Cruz Biotechnology), anti-PGR (1:200 dilution, RB-9017-P0, Thermo Scientific), anti-p-CHUK (IKK, 1:150 dilution, 2697, Cell Signaling Technology), anti-p-STAT3 (1:50 dilution, 9145, Cell Signaling Technology), anti-NOS2 (iNOS, 1:50 dilution, 610333, BD Biosciences) and anti-PTGS2 (COX2, 1:50 dilution, RM-9121, Thermo Scientific).
# (§5) The expression of MKI67, ESR1, PGR, p-CHUK, p-STAT3, NOS2 and PTGS2 proteins in uterine tissues, as determined by immunohistochemical analysis of uterine tissue sections, was semiquantitatively analyzed. Levels of apoptosis were analyzed by TUNEL assay and also semiquantitatively analyzed. Histological sections were obtained from 4 different lesions. For each section, three different areas measuring 0.007 mm^2 were chosen. In each of those areas, the total number of epithelial or stromal cells was counted, as was the number of cells that tested positive for expressing MKI67 (a marker of cellular proliferation), steroid receptors ESR1 and PGR, and inflammatory signaling molecules p-CHUK, p-STAT3, NOS2 and PTGS2 proteins.
# [5] = tested on: mice; conditions: cited from earlier work
# [6] = tested on: recipient mice; test: General tolerability in recipient mice (Studies 1 and 2); assay type: in vivo
# Source text: Uterine tissue pieces of B6-GFP mice (donor) were implanted into the peritoneal walls of recipient mice.
# The recipient mice continued receiving oral daily niclosamide treatments until mouse pups were born, after which niclosamide treatment was discontinued. Three weeks after the pups were born, on postnatal day (PND) 21, the recipient mice were necropsied and the pups were weaned.
# [7] = tested on: p-STAT3; test: Immunohistochemistry of endometriotic lesions, p-STAT3; assay type: in vivo, mice; conditions: 3 weeks; for % of p-STAT3 positive cells/total cells/0.007 mm^2, Stroma: control 11.5 ± 4.4
# Source text: as §1
# [8] = tested on: PGR; test: Immunohistochemistry of endometriotic lesions, PGR; assay type: in vivo, mice; conditions: 3 weeks; for % of PGR positive cells/total cells/0.007 mm^2, Stroma: control 47.2 ± 4.0; for % of PGR positive cells/total cells/0.007 mm^2, Epithelium: control 76.7 ± 7.0
# Source text: as §2, §3, §4, §5
# [9] = after 3 weeks of treatment, 100 or 200 mg/kg b.w./day oral
structure (smiles),measurement,setting,value
"O=C(Nc1ccc([N+](=O)[O-])cc1Cl)c1cc(Cl)ccc1O [niclosamide, 5-chloro-N-(2-chloro-4-nitrophenyl)-2-hydroxybenzamide]",lesion weight,[1]; 100 mg/kg b.w./day oral,0.023 ± 0.004 g
same,lesion volume,"[1]; 100 mg/kg b.w./day oral, no significant difference",23.15±5.0 mm3
same,lesion weight,[1]; 200 mg/kg b.w./day oral,0.016 ± 0.003 g
same,lesion volume,[1]; 200 mg/kg b.w./day oral,7.4±0.8 mm3
same,number of lesions between treatment groups,"[1]; oral 50, 100 or 200 mg/kg b.w. vs controls",did not differ
same,total weight of lesions,"[1]; oral niclosamide 50 mg/kg b.w., n=7",114.9 ± 31.6 mg
same,total weight of lesions,"[1]; oral niclosamide 100 mg/kg b.w., n=9",76.2 ± 18.3 mg
same,total weight of lesions,"[1]; oral niclosamide 200 mg/kg b.w., n=20",44.9 ± 7.43 mg
same,"% of p-CHUK positive cells/total cells/0.007 mm^2, Stroma","[2]; 100 mg/kg b.w./day oral, control 83.4 ± 4.7",86.3 ± 4.0%
same,"% of p-CHUK positive cells/total cells/0.007 mm^2, Epithelium","[2]; 100 mg/kg b.w./day oral, control 97.9 ± 2.1",92.3 ± 3.8%
same,"% of p-CHUK positive cells/total cells/0.007 mm^2, Stroma","[2]; 200 mg/kg b.w./day oral, control 83.4 ± 4.7, p < 0.01",56.2 ± 8.3 %
same,"% of p-CHUK positive cells/total cells/0.007 mm^2, Epithelium","[2]; 200 mg/kg b.w./day oral, control 97.9 ± 2.1, p < 0.05",76.7 ± 9.2 %
same,plasma half-life,[3],7 h
same,"% of ESR1 positive cells/total cells/0.007 mm^2, Stroma",[4]; 100 mg/kg b.w./day oral,55.9 ± 5.5%
same,"% of ESR1 positive cells/total cells/0.007 mm^2, Epithelium",[4]; 100 mg/kg b.w./day oral,96.6 ± 2.0%
same,"% of ESR1 positive cells/total cells/0.007 mm^2, Stroma",[4]; 200 mg/kg b.w./day oral,37.7 ± 5.7%
same,"% of ESR1 positive cells/total cells/0.007 mm^2, Epithelium",[4]; 200 mg/kg b.w./day oral,82.6 ± 5.6%
same,"LD50, acute toxicity",[5],> 1500 mg/kg b.w.
same,adverse effects including weight loss in recipient mice,[6]; [9],no obvious adverse effects
same,estrous cyclicity by vaginal cytology,[6]; [9],observed in all mice
same,"adverse reactions, such as weight loss or changes in behavior in the recipient mice",[6]; daily 200 mg/kg b.w. for three (Study 1) to four weeks (Study 2),did not cause any adverse reactions
same,"% of p-STAT3 positive cells/total cells/0.007 mm^2, Stroma",[7]; 100 mg/kg b.w./day oral,6.9 ± 1.9%
same,"% of p-STAT3 positive cells/total cells/0.007 mm^2, Epithelium","[7]; 100 mg/kg b.w./day oral, control 54.1 ± 3.9",59.0 ± 5.4%
same,"% of p-STAT3 positive cells/total cells/0.007 mm^2, Stroma",[7]; 200 mg/kg b.w./day oral,4.1 ± 1.0%
same,"% of p-STAT3 positive cells/total cells/0.007 mm^2, Epithelium","[7]; 200 mg/kg b.w./day oral, control 54.1 ± 3.9, p < 0.001",26.4 ± 3.8 %
same,"% of PGR positive cells/total cells/0.007 mm^2, Stroma",[8]; 100 mg/kg b.w./day oral,58.1 ± 5.2%
same,"% of PGR positive cells/total cells/0.007 mm^2, Epithelium",[8]; 100 mg/kg b.w./day oral,60.4 ± 10.7%
same,"% of PGR positive cells/total cells/0.007 mm^2, Stroma",[8]; 200 mg/kg b.w./day oral,50.1 ± 6.9%
same,"% of PGR positive cells/total cells/0.007 mm^2, Epithelium",[8]; 200 mg/kg b.w./day oral,69.9 ± 12.2%
